According to ChEMBL document CHEMBL1151061, “Synthesis and inhibitory effects of bivalent sialyl lewis X analogs at preventing cell adhesion” (Bioorg Med Chem Lett, 1997):

These compounds were tested against T1, E-selectin (Homo sapiens, UniProt P16581) (assay: Compound was evaluated for its inhibitory activity against adhesion of HL-60(human promyelocytic leukemia cells) to recombinant human soluble E-selectin (rhsE).).
T1 sequence (P16581 whole entry): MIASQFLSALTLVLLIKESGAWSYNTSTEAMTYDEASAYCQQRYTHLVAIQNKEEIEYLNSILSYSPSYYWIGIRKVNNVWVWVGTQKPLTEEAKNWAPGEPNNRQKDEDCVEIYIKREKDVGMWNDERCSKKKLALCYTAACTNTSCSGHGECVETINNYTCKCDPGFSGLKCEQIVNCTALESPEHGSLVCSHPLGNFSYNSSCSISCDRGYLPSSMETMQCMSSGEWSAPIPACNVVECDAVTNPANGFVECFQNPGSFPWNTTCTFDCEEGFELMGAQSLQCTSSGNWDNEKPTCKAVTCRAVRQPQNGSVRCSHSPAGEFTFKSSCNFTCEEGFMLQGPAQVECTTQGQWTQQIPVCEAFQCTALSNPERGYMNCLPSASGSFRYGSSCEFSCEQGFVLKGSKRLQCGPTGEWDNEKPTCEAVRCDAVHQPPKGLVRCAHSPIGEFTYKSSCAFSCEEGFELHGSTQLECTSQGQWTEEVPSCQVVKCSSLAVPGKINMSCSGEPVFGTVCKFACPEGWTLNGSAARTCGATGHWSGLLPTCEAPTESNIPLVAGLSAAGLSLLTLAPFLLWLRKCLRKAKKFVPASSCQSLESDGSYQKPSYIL

Row | SMILES | IC50 [µM]
1 | CO[C@H]1O[C@@H](O[C@H]2[C@H](O[C@@H]3O[C@@H](C)[C@@H](O)[C@@H](O)[C@@H]3O)[C@@H](NC(=O)c3ccc4ccccc4c3)[C@H](OCCCc3cccc(CCCO[C@@H]4O[C@H](CO)[C@@H](O[C@@H]5O[C@H](OC)[C@H](O)[C@H](O[C@]6(C(=O)O)C[C@H](O)[C@@H](NC(C)=O)[C@H]([C@H](O)[C@H](O)CO)O6)[C@H]5O)[C@H](O[C@@H]5O[C@@H](C)[C@@H](O)[C@@H](O)[C@@H]5O)[C@H]4NC(=O)c4ccc5ccccc5c4)c3)O[C@@H]2CO)[C@H](O)[C@@H](O[C@]2(C(=O)O)C[C@H](O)[C@@H](NC(C)=O)[C@H]([C@H](O)[C@H](O)CO)O2)[C@H]1O | 32
2 | COC(=O)N[C@@H]1C(O)C(OC2C(O)[C@H](O[C@@H]3C(CO)O[C@@H](OCCCO[C@@H]4CCC[C@H](OCCCO[C@@H]5OC(CO)[C@@H](O[C@@H]6OC(CO)[C@H](O)C(OC7C(O)[C@@H](NC(=O)OC)C([C@H](O)[C@H](O)CO)O[C@H]7C(=O)O)C6O)C(O[C@@H]6OC(C)[C@H](O)C(O)C6O)C5Nc5ccc6ccccc6c5)C4)C(Nc4ccc5ccccc5c4)C3O[C@@H]3OC(C)[C@H](O)C(O)C3O)OC(CO)[C@@H]2O)[C@H](C(=O)O)OC1[C@H](O)[C@H](O)CO (stereo partly drawn) | 41
3 | COC(=O)N[C@@H]1C(O)C(OC2C(O)[C@H](O[C@@H]3C(CO)O[C@@H](OCCCO[C@H]4CCC[C@H](OCCCO[C@@H]5OC(CO)[C@@H](O[C@@H]6OC(CO)[C@H](O)C(OC7C(O)[C@@H](NC(=O)OC)C([C@H](O)[C@H](O)CO)O[C@H]7C(=O)O)C6O)C(O[C@@H]6OC(C)[C@H](O)C(O)C6O)C5Nc5ccc6ccccc6c5)C4)C(Nc4ccc5ccccc5c4)C3O[C@@H]3OC(C)[C@H](O)C(O)C3O)OC(CO)[C@@H]2O)[C@H](C(=O)O)OC1[C@H](O)[C@H](O)CO (stereo partly drawn) | 49
4 | CC(=O)N[C@@H]1[C@@H]([C@H](O)[C@H](O)CO)O[C@](O[C@H]2[C@@H](O)[C@@H](O[C@@H]3[C@@H](O[C@H]4O[C@H](C)[C@H](O)[C@@H](O)[C@H]4O)[C@@H](NC(=O)c4ccc5ccccc5c4)[C@@H](OCCc4cccc(CCO[C@@H]5O[C@@H](CO)[C@@H](O[C@@H]6O[C@@H](CO)[C@H](O)[C@H](O[C@]7(C(=O)O)C[C@@H](O)[C@@H](NC(C)=O)[C@H]([C@H](O)[C@H](O)CO)O7)[C@@H]6O)[C@H](O[C@@H]6O[C@@H](C)[C@@H](O)[C@H](O)[C@@H]6O)[C@@H]5NC(=O)c5ccc6ccccc6c5)c4)O[C@@H]3CO)O[C@H](CO)[C@H]2O)(C(=O)O)C[C@@H]1O | 60
5 | CC(=O)N[C@@H]1[C@@H]([C@H](O)[C@H](O)CO)O[C@](O[C@H]2[C@@H](O)[C@@H](O[C@@H]3[C@@H](O[C@H]4O[C@H](C)[C@H](O)[C@@H](O)[C@H]4O)[C@@H](NC(=O)c4ccc5ccccc5c4)[C@@H](OCCCOc4cccc(OCCCO[C@@H]5O[C@@H](CO)[C@@H](O[C@@H]6O[C@@H](CO)[C@H](O)[C@H](O[C@]7(C(=O)O)C[C@@H](O)[C@@H](NC(C)=O)[C@H]([C@H](O)[C@H](O)CO)O7)[C@@H]6O)[C@H](O[C@@H]6O[C@@H](C)[C@@H](O)[C@H](O)[C@@H]6O)[C@@H]5NC(=O)c5ccc6ccccc6c5)c4)O[C@@H]3CO)O[C@H](CO)[C@H]2O)(C(=O)O)C[C@@H]1O | 37
6 | CCO[C@@H]1O[C@@H](CO)[C@@H](O[C@@H]2O[C@@H](CO)[C@H](O)[C@H](O[C@]3(C(=O)O)C[C@@H](O)[C@@H](NC(C)=O)[C@H]([C@H](O)[C@H](O)CO)O3)[C@@H]2O)[C@H](O[C@@H]2O[C@@H](C)[C@@H](O)[C@H](O)[C@@H]2O)[C@@H]1NC(C)=O | 1500
7 | CC(=O)N[C@@H]1[C@@H]([C@H](O)[C@H](O)CO)O[C@](O[C@H]2[C@@H](O)[C@@H](O[C@@H]3[C@@H](O[C@H]4O[C@H](C)[C@H](O)[C@@H](O)[C@H]4O)[C@@H](NC(=O)c4ccc5ccccc5c4)[C@@H](OCc4cccc(CO[C@@H]5O[C@@H](CO)[C@@H](O[C@@H]6O[C@@H](CO)[C@H](O)[C@H](O[C@]7(C(=O)O)C[C@@H](O)[C@@H](NC(C)=O)[C@H]([C@H](O)[C@H](O)CO)O7)[C@@H]6O)[C@H](O[C@@H]6O[C@@H](C)[C@@H](O)[C@H](O)[C@@H]6O)[C@@H]5NC(=O)c5ccc6ccccc6c5)c4)O[C@@H]3CO)O[C@H](CO)[C@H]2O)(C(=O)O)C[C@@H]1O | 30
8 | CC(=O)N[C@H]1[C@H]([C@H](O)[C@H](O)CO)O[C@@](O[C@@H]2[C@H](O)[C@H](O[C@H]3[C@H](O[C@@H]4O[C@@H](C)[C@@H](O)[C@H](O)[C@@H]4O)[C@H](NC(=O)c4ccc5ccccc5c4)[C@H](OCCCc4cccc(CCCO)c4)O[C@H]3CO)O[C@@H](CO)[C@@H]2O)(C(=O)O)C[C@H]1O | 200
